Numbered stars: 1 amine (or outer) side, 2 acyl side, 3 side chain; on linkers, the order of the positions; unused ones are H or OH. Bridge positions count the residues as written; N and C are the ends. Square brackets hold non-standard residues; d marks the D form. Peptide text beside a SMILES is read from it. TATA = O=C(CC[*:1])N1CN(C(=O)CC[*:2])CN(C(=O)CC[*:3])C1; Cba = N[C@@H](CC1CCC1)C(=O)O
What follows are compounds tested against T1, Fc-tagged human NKp46 (Homo sapiens, UniProt O76036) (assay: NKp46 SPR assay (Method 1 and/or Method 2)). Settings: SPR Method 1 and/or Method 2, Table 3B.
T1 construct: purchased ACROBiosystems NC1-H5257
T1 sequence (O76036 22-304): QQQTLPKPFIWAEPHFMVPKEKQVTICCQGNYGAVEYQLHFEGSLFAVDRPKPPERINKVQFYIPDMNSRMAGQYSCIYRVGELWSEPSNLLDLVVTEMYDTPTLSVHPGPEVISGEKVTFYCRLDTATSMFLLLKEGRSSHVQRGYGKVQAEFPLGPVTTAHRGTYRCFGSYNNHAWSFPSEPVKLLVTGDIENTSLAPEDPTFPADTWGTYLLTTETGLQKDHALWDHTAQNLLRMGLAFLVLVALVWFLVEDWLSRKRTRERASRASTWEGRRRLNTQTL
Assay type: binding
Experimental: SPR experiments were performed to determine ka (M^−1s^−1), kd (s^−1), KD (nM) values (where measurable) of various bicyclic peptides to immobilised NKp46.
For analysis of peptide binding to NKp46, a Biacore 3000 instrument was used with a Cytiva Streptavidin chip. Capture of the protein (recombinant human NKp46-Fc fusion biotinylated via Avi-tag) was carried out at 25° C. with HBS-N (10 mM HEPES, 0.15 M NaCl, pH 7.4) as the running buffer and biotinylated NKp46 was captured to a level of 400-800 RU using a dilution of protein to 0.2 μM in buffer. Buffer was then changed to PBS/0.05% Tween 20 and a dilution series of the peptides was prepared in this buffer with a final DMSO concentration of 0.5% with a top peptide concentration of 100 nM-5000 nM and 6 further 2 or 3-fold dilutions. The SPR analysis was run at 25° C. and a flow rate of 50 μl/min with 60 seconds association and 200-400 seconds dissociation time. Data were corrected for DMSO excluded volume effects. All data were double-referenced for blank injections and reference surface using standard processing procedures and data processing and kinetic fitting were performed using Scrubber software, version 2.0c (BioLogic Software). Data were fitted using simple 1:1 binding model allowing for mass transport effects where appropriate.
Peptides were tested against Fc-tagged human NKp46 (ACROBiosystems, cat no. NC1-H5257).
For analysis of peptide binding, a Biacore 8k+ instrument was used with a CM5 chip (Cytiva). All experiments were carried out at 25° C. Anti-human IgG (Fc) antibody (Cytiva) was immobilized on all flow cells by standard amine coupling chemistry. The running buffer was HBS-N(Cytiva, 10 mM HEPES, 0.15 M NaCl, pH 7.4) and the flow rate was 10 μL/min. The carboxymethyl dextran surface was activated with a 1:1 ratio of 0.4 M 1-ethyl-3-(3-dimethylaminopropyl) carbodiimide hydrochloride (EDC)/0.1 M N-hydroxy succinimide (NHS) (Cytiva) for 420s. […] Residual activated groups were blocked with a 420 s injection of 1 M ethanolamine (pH 8.5). The final surface density was 3000-5000 RU. Fc-tagged human NKp46 was diluted to 0.1 μM in HBS-N and was captured on flow cell 2 only of the sensor chip at a flow rate of 10 μL/min to 500-1000 RU. The buffer was then changed to PBS-P+(Cytiva) supplemented with 2% DMSO. […] The flow rate was 50 μL/min with 60 s association and 400 s dissociation. Data were corrected for DMSO volume exclusion effects. All data were double-referenced against blank injections and reference surface response using standard processing procedures. Data processing and kinetic fitting was performed using Biacore Insight Evaluation Software with Extended Screening and Characterization Extension (Cytiva). Data were fitted using steady state affinity 1:1 binding model to determine KD. Data were fitted using kinetic 1:1 binding model to determine kinetic constants where appropriate.
`CC(C)C[C@@H]1NC(=O)[C@@H]2CSCCC(=O)N3CN(CN(C3)C(=O)CCSC[C@@H](C(=O)N[C@@H](C)C(N)=O)NC(=O)[C@H](C(C)C)NC(=O)[C@H](CCCCN)NC(=O)CNC(=O)[C@H]([C@@H](C)O)NC(=O)[C@H](Cc3c[nH]cn3)NC1=O)C(=O)CCSC[C@H](NC(=O)[C@H](C)N)C(=O)N[C@@H](CC(N)=O)C(=O)N[C@@H](CC(C)C)C(=O)N[C@@H](CCC(N)=O)C(=O)N[C@@H](CCC(N)=O)C(=O)N[C@@H](C)C(=O)N2` [BCY14454, A-(SEQ ID NO: 63)-A] (H-ACNLQQACLHTGKVCA-NH2; linker 2-8-15 via TATA; N-terminus assumed) showed a Kd of 2.76 µM. `CSCC[C@@H]1NC(=O)[C@H](CCCCN)NC(=O)[C@@H]2CCCN2C(=O)[C@H](Cc2c[nH]cn2)NC(=O)[C@H]([C@@H](C)O)NC(=O)[C@H](CC(N)=O)NC(=O)[C@@H]2CCCN2C(=O)[C@@H]2CSCCC(=O)N3CN(CN(C3)C(=O)CCSC[C@@H](C(=O)N[C@@H](C)C(N)=O)NC1=O)C(=O)CCSC[C@H](NC(=O)[C@H](C)N)C(=O)N[C@@H](CC(C)C)C(=O)N[C@@H](CC(C)C)C(=O)N[C@@H](Cc1c[nH]cn1)C(=O)N[C@@H](CC(=O)O)C(=O)N[C@@H](Cc1c[nH]cn1)C(=O)N2` [BCY14457, A-(SEQ ID NO: 103)-A] (H-ACLLHDHCPNTHPKMCA-NH2; linker 2-8-16 via TATA) showed a Kd of 2.27 µM. Work on `CC[C@H](C)[C@@H]1NC(=O)[C@@H]2CSCCC(=O)N3CN(CN(C3)C(=O)CCSC[C@@H](C(=O)N[C@@H](C)C(N)=O)NC(=O)[C@H](C(C)C)NC(=O)CNC(=O)[C@H](Cc3c[nH]c4ccccc34)NC1=O)C(=O)CCSC[C@H](NC(=O)[C@H](C)N)C(=O)N[C@@H](CC(=O)O)C(=O)N[C@@H](CC(C)C)C(=O)N[C@@H]([C@@H](C)O)C(=O)N[C@@H]([C@@H](C)O)C(=O)N[C@@H](Cc1c[nH]cn1)C(=O)N[C@@H](CC(N)=O)C(=O)N2` [BCY14458, A-(SEQ ID NO: 104)-A] (H-ACDLTTHNCIWGVCA-NH2; linker 2-9-14 via TATA; C-terminus assumed) yielded a Kd of 1.26 µM. `CSCC[C@@H]1NC(=O)[C@@H]2CSCCC(=O)N3CN(CN(C3)C(=O)CCSC[C@@H](C(=O)N[C@@H](C)C(N)=O)NC(=O)[C@H](C(C)C)NC(=O)[C@H](CCCCN)NC(=O)CNC(=O)[C@H]([C@@H](C)O)NC(=O)[C@H](CCC(N)=O)NC1=O)C(=O)CCSC[C@H](NC(=O)[C@H](C)N)C(=O)N[C@@H](CC(N)=O)C(=O)N[C@@H](CC(C)C)C(=O)N[C@@H](CCC(N)=O)C(=O)N[C@@H](C)C(=O)N1CCC[C@H]1C(=O)N2` [BCY15098, A-(SEQ ID NO: 3)-A] showed a Kd of 1.07 µM. Compound `CSCC[C@@H]1NC(=O)[C@@H]2CSCCC(=O)N3CN(CN(C3)C(=O)CCSC[C@@H](C(=O)N[C@@H](C)C(N)=O)NC(=O)[C@@H]3CCCN3C(=O)[C@H](Cc3ccccc3)NC(=O)[C@H](CCCCN)NC1=O)C(=O)CCSC[C@H](NC(=O)[C@H](C)N)C(=O)N[C@@H](CC(N)=O)C(=O)N[C@@H](CC(C)C)C(=O)N[C@@H](CCC(N)=O)C(=O)N[C@@H](CC(N)=O)C(=O)N1CCC[C@H]1C(=O)N2` [BCY15102, A-(SEQ ID NO: 2)-A] (H-ACNLQNPCMKFPCA-NH2; linker 2-8-13 via TATA; C-terminus assumed) has a Kd of 1.09 ± 0.099 µM. Compound `CC(C)C[C@@H]1NC(=O)[C@@H](NC(=O)[C@H](C)N)CSCCC(=O)N2CN3CN(C2)C(=O)CCSC[C@H](NC(=O)[C@H](Cc2c[nH]cn2)NC(=O)[C@H](CC(=O)O)NC(=O)[C@H](Cc2c[nH]cn2)NC(=O)[C@H](CC(C)C)NC1=O)C(=O)N1CCC[C@H]1C(=O)N[C@@H](CC(N)=O)C(=O)N[C@@H]([C@@H](C)O)C(=O)N[C@@H](Cc1c[nH]cn1)C(=O)N1CCC[C@H]1C(=O)N[C@@H](CCCCN)C(=O)N[C@@H](CC(C)C)C(=O)N[C@H](C(=O)N[C@@H](C)C(N)=O)CSCCC3=O` [BCY15103, A-(SEQ ID NO: 5)-A] (H-ACLLHDHCPNTHPKLCA-NH2; linker 2-8-16 via TATA) has a Kd of 1.66 ± 0.544 µM. With `CSCC[C@@H]1NC(=O)[C@H](CCCCN)NC(=O)[C@@H]2CCCN2C(=O)[C@H](Cc2c[nH]cn2)NC(=O)[C@H]([C@@H](C)O)NC(=O)[C@H](CC(N)=O)NC(=O)[C@@H]2CCCN2C(=O)[C@@H]2CSCCC(=O)N3CN(CN(C3)C(=O)CCSC[C@@H](C(=O)N[C@@H](C)C(N)=O)NC1=O)C(=O)CCSC[C@H](NC(=O)[C@H](C)N)C(=O)N[C@@H](CC(C)C)C(=O)N[C@@H](CC(C)C)C(=O)N[C@@H](Cc1c[nH]cn1)C(=O)N[C@@H](CCC(=O)O)C(=O)N[C@@H](Cc1c[nH]cn1)C(=O)N2` [BCY15104, A-(SEQ ID NO: 6)-A] (H-ACLLHEHCPNTHPKMCA-NH2; linker 2-8-16 via TATA) the Kd was 2.88 µM. `CC[C@H](C)[C@@H]1NC(=O)[C@H]([C@@H](C)CC)NC(=O)[C@@H]2CCCN2C(=O)[C@H](Cc2c[nH]cn2)NC(=O)[C@H]([C@@H](C)O)NC(=O)[C@H](CC(N)=O)NC(=O)[C@@H]2CCCN2C(=O)[C@@H]2CSCCC(=O)N3CN(CN(C3)C(=O)CCSC[C@@H](C(=O)N[C@@H](C)C(N)=O)NC1=O)C(=O)CCSC[C@H](NC(=O)[C@H](C)N)C(=O)N[C@@H](CC(C)C)C(=O)N[C@@H](CC(C)C)C(=O)N[C@@H](Cc1c[nH]cn1)C(=O)N[C@@H](CC(=O)O)C(=O)N[C@@H](Cc1c[nH]cn1)C(=O)N2` [BCY15106, A-(SEQ ID NO: 8)-A] (H-ACLLHDHCPNTHPIICA-NH2; linker 2-8-16 via TATA) showed a Kd of 2.67 µM. With `CC(C)C[C@@H]1NC(=O)[C@H](Cc2ccc(O)cc2)NC(=O)[C@H](CC(=O)O)NC(=O)[C@@H]2CCCN2C(=O)[C@H](CC(C)C)NC(=O)[C@H](Cc2ccc(O)cc2)NC(=O)[C@@H](NC(=O)[C@H](C)N)CSCCC(=O)N2CN3CN(C2)C(=O)CCSC[C@@H](C(=O)N[C@@H](C)C(N)=O)NC(=O)[C@H](Cc2ccc(O)c(C(C)(C)C)c2)NC(=O)[C@H](CCC(=O)O)NC(=O)[C@H](CC(=O)O)NC(=O)CNC(=O)[C@H](CSCCC3=O)NC1=O` [BCY15652, A-(SEQ ID NO: 109)-A] the Kd was 0.044 µM. Work on `CC(C)C[C@@H]1NC(=O)[C@H](Cc2ccc(O)cc2)NC(=O)[C@H](CC(=O)O)NC(=O)[C@@H]2CCCN2C(=O)[C@H](CC2CCC2)NC(=O)[C@H](Cc2ccc(O)cc2)NC(=O)[C@@H](NC(=O)[C@H](C)N)CSCCC(=O)N2CN3CN(C2)C(=O)CCSC[C@H](NC1=O)C(=O)N[C@H](C)C(=O)N[C@@H](CC(=O)O)C(=O)N[C@@H](CCC(=O)O)C(=O)N[C@@H](Cc1ccc(O)cc1)C(=O)N[C@H](C(=O)N[C@@H](C)C(N)=O)CSCCC3=O` [BCY16132, A-(SEQ ID NO: 40)-A] (H-ACY[Cba]PDYLC[dA]DEYCA-NH2; linker 2-9-14 via TATA; N-terminus assumed) yielded a Kd of 0.0039 µM. Compound `CC[C@H](C)[C@@H]1NC(=O)CNC(=O)[C@H](Cc2c[nH]c3ccccc23)NC(=O)[C@H](CCC(N)=O)NC(=O)[C@@H]2CSCCC(=O)N3CN(CN(C3)C(=O)CCSC[C@H](N)C(=O)N[C@@H](CC(=O)O)C(=O)N[C@@H](CC(C)C)C(=O)N[C@@H]([C@@H](C)O)C(=O)N[C@@H]([C@@H](C)O)C(=O)N[C@@H](Cc3c[nH]cn3)C(=O)N[C@@H](CC(N)=O)C(=O)N2)C(=O)CCSC[C@@H](C(N)=O)NC1=O` [BCY18262, (SEQ ID NO: 11)] has a Kd of 3.18 µM. For `CC[C@H](C)[C@@H]1NC(=O)CNC(=O)[C@H](Cc2c[nH]c3ccccc23)NC(=O)[C@H](CCC(N)=O)NC(=O)[C@@H]2CSCCC(=O)N3CN(CN(C3)C(=O)CCSC[C@@H](C(=O)N[C@@H](C)C(N)=O)NC1=O)C(=O)CCSC[C@H](NC(=O)[C@H](C)N)C(=O)N[C@@H](CC(=O)O)C(=O)N[C@@H](CC(C)C)C(=O)N[C@@H](C)C(=O)N[C@@H]([C@@H](C)O)C(=O)N[C@@H](Cc1c[nH]cn1)C(=O)N[C@@H](CC(N)=O)C(=O)N2` [BCY18265, A-(SEQ ID NO: 117)-A] (H-ACDLATHNCQWGICA-NH2; linker 2-9-14 via TATA; C-terminus assumed), the Kd was 1.48 µM. In the case of `CC[C@H](C)[C@@H]1NC(=O)CNC(=O)[C@H](Cc2c[nH]c3ccccc23)NC(=O)[C@H](C)NC(=O)[C@@H]2CSCCC(=O)N3CN(CN(C3)C(=O)CCSC[C@@H](C(=O)N[C@@H](C)C(N)=O)NC1=O)C(=O)CCSC[C@H](NC(=O)[C@H](C)N)C(=O)N[C@@H](CC(=O)O)C(=O)N[C@@H](CC(C)C)C(=O)N[C@@H]([C@@H](C)O)C(=O)N[C@@H]([C@@H](C)O)C(=O)N[C@@H](Cc1c[nH]cn1)C(=O)N[C@@H](CC(N)=O)C(=O)N2` [BCY18269, A-(SEQ ID NO: 119)-A] (H-ACDLTTHNCAWGICA-NH2; linker 2-9-14 via TATA), the Kd is reported as 1.64 µM.
